Test system: proinsulin epitope C20-A1-specific CD4+ T cells
Assay: FACS quantification of CD4+ T cells responding to proinsulin epitope C20-A1 stimulation in PBMCs of T1D patients treated with IMP or placebo
Format: in vivo, human
Details: visits 3 to 6 (impact of administrations 3 to 6)
Experimental: 84 HLA DR4+ adult participants are randomly assigned (1:1:1) to one of the three treatment arms: placebo, investigational medicinal product (IMP) 450 μg and IMP 1350 μg (=the main study). All participants receive 6 administrations of IMP or placebo with a 2-week interval between each administration. At 24 weeks participants receive a boost injection. While treated participants receive a boost administration equivalent to the dose they have been randomized to, placebo participants receive a placebo boost. The participants were followed up to 48 weeks (FIG. 1).
Treatment consists of six administrations (separated by 14 days) of the IMP or the placebo by SC route. […]
Patient blood samples collected at six time points (visit V-1 or the baseline which was prior to immunization, and visits V2 to V6 which were two weeks after 2, 3, 4, 5 or 6 injections respectively) was used to quantify CD4+ T cells responding to proinsulin epitope C20-A1 stimulation. […]
Fluorescent activated cell sorting (FACS) analysis was performed to quantify CD4+ T cells that respond to proinsulin epitope stimulation. […] In a proinsulin epitope C20-A1-stimulated sample, the “net % of responding CD4+ T cells” was calculated as the % of CD4+ T cells with an effector or regulatory phenotype in the stimulated sample minus the % of CD4+ T cells with effector or regulatory phenotype in the corresponding unstimulated sample. […]

Sequence: HCPYCSLQPLALEGSLQKRG [IMP]
- net % of responding CD4+ T cells in IMP treated as compared to Placebo treated patients at individual time points: trend of greater net % of responding CD4+ T cells
